Earlier results in patent US5246920A, “Treatment of hyperprolactinemia” (University of South Florida, priority 1992, dated 1993).
Where no end group is shown, it is not given here. [ ]: non-standard residue; d: D form.

Tested on: old rats
Settings: peptides given individually

| Substance | sensitivity of old rats to the individually administered peptides, in words |
| --- | --- |
| GHRH: Natural growth hormone releasing hormone, also known as growth hormone releasing factor (GHRF or GRF) (YADAIFTNSYRKVLGQLSARKLLQDIMSRQQGESNQERGARARL; ends and bridges not checked; UniProt P01286 32-75, looked up) | relatively insensitive |
| H[dW]AW[dF]K-NH2 [GHRP-6] | relatively insensitive |
